Tests used:
[1] = test system: L. amazonensis promastigotes; assay: Promastigote assay (MTT); format: cell-based, Leishmania amazonensis; conditions: after 48 h of culture (table title); for IC50: Leishmania amazonensis
Protocol: Leishmania amazonensis (MHOM/BR/77/LTB0016) were regularly isolated from infected mice and maintained in culture as promastigotes through weekly passages in Schneider’s medium (Sigma Aldrich, St. Louis, MO, USA) supplemented with 10% (v/v) heat-inactivated fetal calf serum, penicillin (100 UI/mL), and streptomycin (100 µg/mL) at 299K. Parasites were maintained until the 10th passage. The Animal Ethics Committee of the Oswaldo Cruz Foundation (license number L026/2015) approved this study.
Promastigotes of L. amazonensis (1 × 10^6 promastigotes/mL) in the 4th day on culture in the conditions described above were incubated with the chalcones serially diluted in culture medium (0.032% v/v DMSO at the highest concentration tested) on a 96-well cell culture plate (TPP™ test plate, Switzerland). The assayed concentrations ranged from 50 to 1.56 µM for all chalcone-thiosemicarbazones (5a–g) and for pentamidine (Sigma Aldrich, St. Louis, MO, USA). […] All compounds were analyzed in at least three experiments performed in triplicate. Pentamidine was used as the reference drug and diluted in the same concentrations used for 5a–g. The vehicle (DMSO) had no effect on the parasites.
The antileishmanial activity was evaluated by adding 22 µL of 3-(4,5-dimethylthiazol-2-yl)-2-5diphenyltetrazolium bromide (MTT) at 5 mg/mL (Sigma Aldrich, St. Louis, MO, USA) to each well. After 2 h, 80 µL of DMSO was added and the optical density was determined at a wavelength of 570 nm in a microplate reader (µQuant Bio-Tek Instruments®, Winooski). The assays were carried out in triplicate in 96-well plates (Costar, New York, USA). The inhibition percentage was estimated by the comparison with the non-treated control. The values for the inhibitory concentration for 50% of the promastigotes (IC50) were calculated by a sigmoidal model.

[2] = constant of substituent 4-X; cited from earlier work
[3] = test system: L. amazonensis intracellular amastigotes; assay: Intracellular amastigotes assay in infected macrophages; format: cell-based, Leishmania amazonensis; conditions: for IC50: L. amazonensis-infected murine peritoneal macrophages, 48 h of culture; for Selectivity Index (SI): SI = LD50/IC50 intracellular amastigotes
Protocol: Peritoneal macrophages were obtained BALB/c mice with cold Roswell Park Memorial Institute (RPMI) 1640 medium (Sigma Aldrich, St. Louis, MO, USA) supplemented as above. The cell suspension was adjusted to 1 × 10^6 macrophage/mL and incubated in a LAB-TEK 8-chamber slide (Nunc, Roskilde, Denmark) at 310K and 5% CO2 for 1 h. Non-adherent cells were removed and stationary-phase L. amazonensis promastigotes were added at a 3:1 parasite/macrophage ratio. The cultures were incubated for a further 4 h, and free parasites were removed. The chambers were washed, and the monolayers were incubated with the compounds for 48 h. Infected macrophages incubated only in the culture medium were used as controls to compare with the infected treated macrophages. […] The cultures were fixed in methanol and stained with the hematological system Instant Prov (Newprov®, Curitiba, Brazil). The slides were examined by light microscopy, and the number of infected macrophages and the mean number of parasites per macrophage were determined in 100 cells counted. The experiments were performed twice in triplicate. The percentage of infected macrophages was calculated by dividing the number of infected macrophages by the total number of macrophages (infected and uninfected) counted on the slides, multiplied by 100. To determine the infection index, the percentage of infected macrophages was multiplied by the mean number of parasites per macrophage. The percentage inhibition of infection was calculated by multiplying the difference between the infection index of the control and the compound by 100 and dividing by the infection index (IF) of the control using the Equation (1):IF = % infected cells × amastigotes number/total number of macrophages(1) The IC50 ± SD (SD: standard deviation) values were obtained by a sigmoidal model using Origin 6.0 with statistical error limits up to 10%. All tests were conducted in duplicate for each concentration, and two independent assays were performed.

[4] = test system: L. amazonensis axenic amastigotes; assay: Axenic amastigotes assay (resazurin); format: cell-based; conditions: Leishmania amazonensis, 72 h of culture, table title says 48 h
Protocol: Promastigote forms of L. amazonensis (MHOM/BR/77/LTB0016) were grown to a stationary phase, washed once in phosphate buffer solution (PBS) (pH = 7.4) and adjusted to 5 × 10^6 parasites/mL in Schneider’s medium, supplemented with 20% fetal bovine solution (FBS) pH = 5.5 and maintained at 305K. After 5 days of cultivation, the rounded forms without free flagella were obtained and, after heat shock, were used in the appropriate assays. To evaluate the activity against axenic amastigotes, the parasites were incubated with increasing concentrations of the prototypes (diluted in DMSO) for 72 h at 305K. These assays were performed in triplicate in 96-well flat bottom plates (Falcon Co, Franklin Lakes, USA). The leishmanicidal activity was evaluated by adding 22 μl of resazurin to each well. After 4 h, the cell viability was measured as described above. Calculation of the IC50 values was determined in relation to the control by a sigmoidal model using GraphPad Prism 6.0 software.

[5] = test system: murine peritoneal macrophages; assay: Macrophage cytotoxicity (resazurin); format: cell-based
Protocol: Peritoneal macrophages from albino laboratory-bred strain (BALB/c) mice were obtained in RPMI 1640 medium at pH 7.2 (Gibco, New York, NY, USA) supplemented with 10% (v/v) heat-inactivated fetal bovine serum, 100 U/mL penicillin and 0.1 mg/mL of streptomycin and distributed (1 × 10^6 macrophages/well) in triplicate in 96-well plates (Falcon Co., Franklin Lakes, USA) and incubated for 1 h in a 5% CO2 atmosphere incubator at 310K. The supernatant was removed, and the compounds were added to the plate at concentrations from 10 µM to 50 µM. Next, the cultures were incubated for 48 h in a CO2 incubator at 310K. After incubation, the supernatant was removed and a resazurin solution (50 µM) was added to each well and incubated at 310K for 4 h. Furthermore, the fluorescence was measured using a wavelength of 560 nm for excitation and 590 nm for detection (Molecular Devices, Silicon Valley, USA). Results were expressed as the percentage of viable cells compared to the control cells treated with the highest DMSO dose used to dissolve the drugs. The 50% cytotoxic concentration (CC50) was calculated using GraphPad Prism 6.0 software (GraphPad Company, San Diego, CA, USA).

[6] = Leishmania amazonensis, Peritoneal macrophage, in Mus musculus, 48 h

Row | SMILES | IC50 [1] [µM] | IC50 [3, 6] [µM] | IC50 [4] [µM] | IC50 [3] [µM] | Promastigotes IC50 [1] | melting point [°C] | Hammett constant σp [2] | Hansh constant π (lipophilicity) [2] | Taft constant Es [2] | molecular refractivity MR [2] | Selectivity Index (SI) [3] | Macrophages LD50 ([5]; BALB/c, mouse, 48 h, pH 7.2) [µM] | IC50 ([3]; Leishmania amazonensis, Peritoneal macrophage) [µM] | Macrophages LD50 ([5]; murine peritoneal macrophages, 48 h of culture) [µM]
1 | NC(=S)N/N=C(\C=C\c1ccccc1)c1ccccc1 [Compound 5a, (1E,2E)-3-(phenyl)-1-phenylprop-2-en-1-one thiosemicarbazone] | 14.7 ± 0.31 | – | 6.88 ± 1.09 | – | – | – | 0.00 | 0.00 | 0.00 | 0.00 | – | 40.98 ± 1.12 | – | –
2 | N#Cc1ccc(/C=C/C(=N\NC(N)=S)c2ccccc2)cc1 [Compound 5c, (1E,2E)-3-(4′-cyanophenyl)-1-phenylprop-2-en-1-one thiosemicarbazone] | – | – | – | – | no significant activity | 195 to 196 | 0.71 | −0.57 | −0.51 | 0.63 | – | – | – | –
3 | NC(=S)N/N=C(\C=C\c1ccc([N+](=O)[O-])cc1)c1ccccc1 [Compound 5g, (1E,2E)-3-(4′-nitrophenyl)-1-phenylprop-2-en-1-one thiosemicarbazone] | – | – | – | – | no significant activity | 188 to 190 | 0.81 | −0.28 | −1.01 | 0.74 | – | – | – | –
4 | N=C(N)c1ccc(OCCCCCOc2ccc(C(=N)N)cc2)cc1 [Pentamidine, pentamidine, reference compound] | 4.9 ± 0.6 | – | 12.3 ± 1.17 | – | – | – | – | – | – | – | 2.32 | – | 11.1 ± 1.98 | 25.85 ± 4.06

Continued, in another order:

Row | IC50 [1] [µM] | IC50 [3, 6] [µM] | IC50 [4] [µM] | IC50 [3] [µM] | Promastigotes IC50 [1] | melting point [°C] | SMILES | Hammett constant σp [2] | Hansh constant π (lipophilicity) [2] | Taft constant Es [2] | molecular refractivity MR [2] | Selectivity Index (SI) [3] | Macrophages LD50 ([5]; BALB/c, mouse, 48 h, pH 7.2) [µM] | IC50 ([3]; Leishmania amazonensis, Peritoneal macrophage) [µM] | Macrophages LD50 ([5]; murine peritoneal macrophages, 48 h of culture) [µM]
5 | 14.8 ± 1.92 | 5.95 ± 0.61 | 7.08 ± 1.03 | – | – | – | Cc1ccc(/C=C/C(=N\NC(N)=S)c2ccccc2)cc1 [Compound 5b, (1E,2E)-3-(4′-methylphenyl)-1-phenylprop-2-en-1-one thiosemicarbazone] | −0.14 | 0.56 | −0.25 | 0.57 | 9.47 | 56.35 ± 0.78 | – | –
6 | 13.1 ± 1.85 | 3.4 to 5.95 | 5.57 ± 1.15 | > 3.13 | – | – | NC(=S)NN=C(C=Cc1ccc(F)cc1)c1ccccc1 [Compound 5d, (1E,2E)-3-(4′-fluorphenyl)-1-phenylprop-2-en-1-one thiosemicarbazone] | 0.15 | 0.14 | −0.46 | 0.10 | – | 35.47 ± 1.38 | – | –
7 | 12.5 ± 0.99 | – | 4.24 ± 1.07 | – | – | – | NC(=S)N/N=C(\C=C\c1ccc(Br)cc1)c1ccccc1 [Compound 5f, (1E,2E)-3-(4′-bromophenyl)-1-phenylprop-2-en-1-one thiosemicarbazone] | 0.26 | 0.86 | −1.16 | 0.89 | – | 44.24 ± 4.21 | – | –

— publication PMC6920794, “Evaluation of Novel Chalcone-Thiosemicarbazones Derivatives as Potential Anti-Leishmania amazonensis Agents and Its HSA Binding Studies” (Biomolecules, 2019)
